Source: patent US8481571B2, “Anti-coronavirus compounds” (Academia Sinica, priority 2004, dated 2013)

Experiments:
[1] = tested on: severe acute respiratory syndrome virus; assay: organism not typed; assay type: cell-based; settings: Vero C1008
[2] = tested on: Vero E6 cells

SMILES	EC50 [1] [µM]	inhibitory effect on cell growth [2]
CC(C)[C@H](NC(=O)OCc1ccccc1)C(=O)N[C@@H](Cc1ccccc1)[C@@H](O)[C@H](O)[C@H](Cc1ccccc1)NC(=O)[C@@H](NC(=O)OC(C)(C)C)C(C)C [Compound 1]	0.85 to 100	none of them exhibited inhibitory effect on cell growth
CC(C)[C@H](NC(=O)[C@H](C)NC(=O)OCc1ccccc1)C(=O)N[C@@H](Cc1ccccc1)[C@@H](O)[C@H](O)[C@H](Cc1ccccc1)NC(=O)[C@@H](NC(=O)[C@H](C)NC(=O)OCc1ccccc1)C(C)C [Compound 2]	0.85 to 100	none of them exhibited inhibitory effect on cell growth
CCCCCCC1=C2C[C@H]3C(C)(C)C[C@@H](OC1=O)[C@@]23C [Compound 3]	0.85 to 100	none of them exhibited inhibitory effect on cell growth
CCCCCC12C3=C(c4ccccc4)C(=O)O[C@@H]1CC[C@@H]2C3 (stereo partly shown) [Compound 4]	0.85 to 100	none of them exhibited inhibitory effect on cell growth
CC(C)=CCC[C@](C)(O)[C@H]1CC[C@@H]2[C@@H]1CC[C@H]1[C@@]2(C)CC[C@H]2C(C)(C)C(=O)CC[C@]12C [Compound 6]	0.85 to 100	none of them exhibited inhibitory effect on cell growth
COC(=O)CCCN1C[C@H](OCc2ccccc2)[C@@H](OCc2ccccc2)[C@H](OCc2ccccc2)[C@H]1COCc1ccccc1 [Compound 9]	0.85 to 100	none of them exhibited inhibitory effect on cell growth
CC[C@H]1OC(=O)[C@H](C)C(=O)[C@H](C)[C@@H](O[C@@H]2C[C@H](C)C[C@H](N(C)C)[C@H]2O)[C@@](C)(OC)C[C@@H](C)CN(C(=O)CCCn2cc(-c3ccc(C(F)(F)F)cc3)nn2)[C@H](C)[C@@H](O)[C@]1(C)O [Compound 11]	0.85 to 100	none of them exhibited inhibitory effect on cell growth
COC(=O)[C@H]1[C@H]2C[C@@H]3c4[nH]c5cc(OC)ccc5c4CCN3C[C@H]2C[C@@H](OC(=O)c2cc(OC)c(OC)c(OC)c2)[C@@H]1OC [Compound 13]	0.85 to 100	none of them exhibited inhibitory effect on cell growth
O[C@H]1[C@H](O)[C@@H](OCc2cccc(F)c2)CNC[C@@H]1OCc1cccc(F)c1 [Compound 15]	0.85 to 100	none of them exhibited inhibitory effect on cell growth
CC1(C)CCC2(C(=O)O)CC[C@@]3(C)C(=CCC4[C@@]5(C)CCC(O[C@@H]6OC(O)[C@@H](O)[C@@H](O)C6O[C@@H]6OC(O)[C@@H](O)[C@@H](O)C6O)C(C)(CO)C5CC[C@]43C)C2C1 (stereo partly shown) [Compound 16]	0.85 to 100	–
CC(C)=CCC[C@](C)(CO[C@@H]1OC(CO[C@@H]2OC(CO)[C@@H](O)[C@@H](O)C2O)[C@@H](O)[C@@H](O)C1O)C1CC[C@@]2(C)C1C(O)CC1[C@@]3(C)CCC(O[C@@H]4OC(CO)[C@@H](O)[C@@H](O)C4O[C@@H]4OC(CO)[C@@H](O)[C@@H](O)C4O)C(C)(C)C3CC[C@]12C (stereo partly shown) [Compound 17]	0.85 to 100	–
CC1(C)CC2C3=CCC4[C@@](C)(CCC5[C@@H](O)C(O[C@@H]6OC(CO)[C@@H](O)[C@@H](O)C6O[C@@H]6OC(CO)[C@@H](O)[C@@H](O)C6O)CC[C@@]54C)C3CC[C@@]2(C)[C@H](O)C1 (stereo partly shown) [Compound 18]	0.85 to 100	–
COC(=O)[C@H]1[C@H]2C[C@@H]3c4[nH]c5cc(OC)ccc5c4CCN3C[C@H]2C[C@@H](OC(=O)/C=C/c2cc(OC)c(OC)c(OC)c2)[C@@H]1OC [Compound 19]	0.85 to 100	–
COC(=O)C1=COC[C@H]2CN3CCc4c([nH]c5ccccc45)[C@@H]3C[C@H]12 [Compound 20]	0.85 to 100	–
COC(=O)[C@H]1[C@H]2C[C@H]3c4[nH]c5cc(OC)ccc5c4CCN3C[C@H]2C[C@@H](OC(=O)c2cc(OC)c(OC)c(OC)c2)[C@@H]1OC [Compound 21]	0.85 to 100	–
COC(=O)[C@H]1[C@H]2C[C@H]3c4[nH]c5ccccc5c4CCN3C[C@@H]2CC[C@@H]1O [Compound 22]	0.85 to 100	–
COC(=O)C1[C@H]2C[C@H]3c4[nH]c5ccccc5c4CCN3C[C@H]2CC[C@@H]1O (stereo partly shown) [Compound 23]	0.85 to 100	–
COC(=O)[C@@H]1[C@H]2C[C@H]3c4[nH]c5ccccc5c4CCN3C[C@@H]2CC[C@@H]1O [Compound 24]	0.85 to 100	–
Cc1cccc(C)c1OCC(=O)N[C@@H](Cc1ccccc1)C[C@H](O)[C@H](Cc1ccccc1)NC(=O)[C@H](CC(C)C)NC(=O)c1ccc([N+](=O)[O-])o1 [Compound 25]	0.85 to 100	–
Cc1cccc(C(=O)N[C@@H](CC(C)C)C(=O)N[C@@H](Cc2ccccc2)[C@@H](O)C[C@H](Cc2ccccc2)NC(=O)COc2c(C)cccc2C)c1 [Compound 27]	0.85 to 100	–
Cc1cccc(C)c1OCC(=O)N[C@@H](Cc1ccccc1)C[C@H](O)[C@H](Cc1ccccc1)NC(=O)[C@H](CC(C)C)NC(=O)CSc1ccccn1 [Compound 28]	0.85 to 100	–
Cc1cccc(C)c1OCC(=O)N[C@@H](Cc1ccccc1)C[C@H](O)[C@H](Cc1ccccc1)NC(=O)[C@H](CC(C)C)NC(=O)c1cc2ccccc2[nH]1 [Compound 29]	0.85 to 100	–
Cc1cccc(C)c1OCC(=O)N[C@@H](Cc1ccccc1)C[C@H](O)[C@H](Cc1ccccc1)NC(=O)[C@H](CC(C)C)NC(=O)CN1C(=O)CSC1=S [Compound 30]	0.85 to 100	–
Cc1cccc(C)c1OCC(=O)N[C@@H](Cc1ccccc1)C[C@H](O)[C@H](Cc1ccccc1)NC(=O)[C@H](CC(C)C)NC(=O)c1ccc(C(F)(F)F)cc1 [Compound 31]	0.85 to 100	–
COc1ccc(/C=C/C(=O)N[C@@H](CC(C)C)C(=O)N[C@@H](Cc2ccccc2)[C@@H](O)C[C@H](Cc2ccccc2)NC(=O)COc2c(C)cccc2C)cc1 [Compound 32]	0.85 to 100	–
Cc1cccc(C)c1OCC(=O)N[C@@H](Cc1ccccc1)C[C@H](O)[C@H](Cc1ccccc1)NC(=O)[C@H](CC(C)C)NC(=O)CCNC(=O)OC(C)(C)C [Compound 33]	0.85 to 100	–
Cc1cccc(C)c1OCC(=O)N[C@@H](Cc1ccccc1)C[C@H](O)[C@H](Cc1ccccc1)NC(=O)[C@H](CC(C)C)NC(=O)C1=CCOc2ccc(Cl)cc21 [Compound 34]	0.85 to 100	–
Cc1cccc(C)c1OCC(=O)N[C@@H](Cc1ccccc1)C[C@H](O)[C@H](Cc1ccccc1)NC(=O)[C@H](CC(C)C)NC(=O)COc1ccc2ccccc2c1 [Compound 35]	0.85 to 100	–
